Source: PMC2248166, “Quantitative peptide binding motifs for 19 human and mouse MHC class I molecules derived using positional scanning combinatorial peptide libraries” (Immunome Research, 2008)

Assays:
Type in all cases: binding
HLA B*5301 = HLA B*5301 (Homo sapiens, UniProt P01889, A329T/A93T/A95T/C349S/D201E/D98Y/E176V/E187L/E204Q/E69T/G107R/I218V/K202T/L105A/L119I/N104I/Q94N/R106L/R155S/R180L/S101N/S121R/S35A/S48A/T118I/V127L/V306I/V36M/Y140S/Y91F)
H-2 D^d = H-2 D^d (Mus musculus, UniProt P01900)
H-2 D^d, sequence (P01900 whole entry, looked up): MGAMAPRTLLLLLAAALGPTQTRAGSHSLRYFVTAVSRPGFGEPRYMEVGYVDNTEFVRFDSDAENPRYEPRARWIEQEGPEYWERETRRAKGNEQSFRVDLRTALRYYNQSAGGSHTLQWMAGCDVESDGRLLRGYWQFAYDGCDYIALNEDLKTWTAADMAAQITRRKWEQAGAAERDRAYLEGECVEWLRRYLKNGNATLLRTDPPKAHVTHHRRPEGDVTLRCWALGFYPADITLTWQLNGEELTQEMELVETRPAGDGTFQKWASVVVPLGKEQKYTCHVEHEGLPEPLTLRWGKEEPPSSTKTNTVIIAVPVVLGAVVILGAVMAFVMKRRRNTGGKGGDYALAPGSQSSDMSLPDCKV

HLA B*5802 = HLA B*5802 (Homo sapiens, UniProt P01889, A329T/C349S/D201E/D98Y/E176V/E187L/E204Q/E69T/G107R/I218V/I90N/K202T/L105A/N104I/N87E/Q89R/Q94S/R106L/R155S/R180L/R86G/S101N/S121W/S35A/S48A/V127L/V306I/V36M/Y140S/Y91M)
HLA B*0801 = HLA B*0801 (Homo sapiens, UniProt P01889, A93T/A95T/D138N/E176V/E187T/K202T/Q94N/R180D/S35A/V36M/Y33D/Y91F); experiment: biochemical
HLA B*5801 = HLA B*5801 (Homo sapiens, UniProt P01889, A329T/C349S/D201E/D98Y/E176V/E187L/E204Q/E69T/G107R/I218V/I90N/K202T/L105A/L119I/N104I/N87E/Q89R/Q94S/R106L/R155S/R180L/R86G/S101N/S121R/S35A/S48A/T118I/V127L/V306I/V36M/Y140S/Y91M)
HLA B*5101 = HLA B*5101 (Homo sapiens, UniProt P01889, A329T/A93T/A95T/C349S/D138N/D201E/D98Y/E187L/E204Q/E69T/G107R/I218V/K202T/L105A/L119W/N104I/Q94N/R106L/R155S/R180L/S101N/S121T/S35A/S48A/V306I/V36M/Y195H/Y91F)
HLA B*1503 = HLA B*1503 (Homo sapiens, UniProt P01889, A329T/A93T/A95T/C349S/D201E/D98Y/E187L/E204Q/K202T/N87E/Q94N/R155S/R180L/S121R/S35A/V306I/V36M/Y140S/Y91S); experiment: biochemical
HLA A*3001 = HLA A*3001 (Homo sapiens, UniProt P04439, D140H/D185E/E176W/F33S/G80R/H175R/K168Q/R138E/R41S); experiment: biochemical
HLA B*5401 = HLA B*5401 (Homo sapiens, UniProt P01889, A329T/C349S/D138N/D201E/E176V/E187T/E204Q/E69G/I76V/K202T/L119W/R155S/R180L/S121T/S35A/S48A/V127L/V306I/V36M/Y140L)
H-2 K^k = H-2 K^k (Mus musculus, UniProt P04223)
H-2 K^k, sequence (P01887 21-119): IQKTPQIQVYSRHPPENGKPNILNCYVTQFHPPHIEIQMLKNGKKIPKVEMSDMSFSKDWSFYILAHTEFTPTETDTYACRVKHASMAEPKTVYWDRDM
H-2 K^k, sequence (P04223 22-369): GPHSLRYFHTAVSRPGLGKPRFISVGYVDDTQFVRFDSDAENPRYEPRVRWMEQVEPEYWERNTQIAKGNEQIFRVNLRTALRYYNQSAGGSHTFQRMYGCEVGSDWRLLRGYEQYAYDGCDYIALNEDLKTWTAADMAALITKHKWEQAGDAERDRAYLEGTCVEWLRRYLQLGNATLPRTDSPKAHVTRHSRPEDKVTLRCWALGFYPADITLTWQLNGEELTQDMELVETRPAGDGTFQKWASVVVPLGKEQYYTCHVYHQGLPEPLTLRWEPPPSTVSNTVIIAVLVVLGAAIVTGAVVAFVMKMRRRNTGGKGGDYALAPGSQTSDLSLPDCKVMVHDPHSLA

H-2 K^d = H-2 K^d (Mus musculus, UniProt P01902)
H-2 K^d, sequence (P01887 21-119): as the sequence (P01887 21-119) above
H-2 K^d, sequence (P01902 22-368): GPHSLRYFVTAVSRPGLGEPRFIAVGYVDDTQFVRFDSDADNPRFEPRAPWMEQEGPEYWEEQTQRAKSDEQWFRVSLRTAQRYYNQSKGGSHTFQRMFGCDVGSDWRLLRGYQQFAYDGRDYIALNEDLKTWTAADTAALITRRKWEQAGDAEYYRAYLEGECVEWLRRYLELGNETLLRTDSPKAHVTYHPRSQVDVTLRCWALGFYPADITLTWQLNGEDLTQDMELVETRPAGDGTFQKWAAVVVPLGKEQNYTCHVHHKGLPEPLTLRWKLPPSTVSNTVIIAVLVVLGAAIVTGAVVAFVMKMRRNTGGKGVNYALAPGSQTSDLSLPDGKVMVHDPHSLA

HLA B*1501 = HLA B*1501 (Homo sapiens, UniProt P01889, A329T/A93T/A95T/C349S/D201E/D98Y/E187L/E204Q/E69M/E70A/K202T/N87E/Q94N/R155S/R180W/S121R/S35A/S48A/V306I/V36M/Y140S/Y91S); experiment: biochemical
H-2 D^b = H-2 D^b (Mus musculus, UniProt P01899)
H-2 D^b, sequence (P01887 21-119): as the sequence (P01887 21-119) above
H-2 D^b, sequence (P01899 25-362): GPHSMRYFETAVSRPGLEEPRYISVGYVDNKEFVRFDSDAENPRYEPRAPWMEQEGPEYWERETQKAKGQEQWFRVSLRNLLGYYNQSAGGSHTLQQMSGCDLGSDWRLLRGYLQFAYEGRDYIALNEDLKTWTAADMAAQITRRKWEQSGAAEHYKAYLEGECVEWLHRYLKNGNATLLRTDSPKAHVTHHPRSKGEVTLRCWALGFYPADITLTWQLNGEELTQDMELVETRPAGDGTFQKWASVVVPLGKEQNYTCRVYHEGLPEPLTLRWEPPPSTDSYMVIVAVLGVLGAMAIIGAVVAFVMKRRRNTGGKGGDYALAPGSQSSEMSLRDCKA

HLA A*3201 = HLA A*3201 (Homo sapiens, UniProt P04439, A270S/D101S/D185E/E176V/E277Q/F133L/G103R/G107R/G231S/H175R/I121M/I218V/I322F/K168Q/L105A/L300P/L318F/M331R/P208A/P217A/Q94H/R106L/R138Q/S129P/T104I/T323A/T345S/V100E/V321M/V358M); experiment: biochemical
HLA A*6802 = HLA A*6802 (Homo sapiens, UniProt P04439, A269V/D140Y/D185E/E176V/E277Q/E87N/F33Y/G231S/I121R/I166T/I218V/L180W/L300P/L318F/N151K/P208A/P217A/Q86R/R138H/R169H/S129P/T345S/V36M)
HLA B*3501 = HLA B*3501 (Homo sapiens, UniProt P01889, A329T/A93T/A95T/C349S/D201E/D98Y/E176V/E187L/E204Q/E69T/I218V/K202T/L119I/Q94N/R155S/R180L/S121R/S35A/S48A/T118I/V127L/V306I/V36M/Y140S/Y91F)

XXXXXXIXX [3064.0128]
Normalized average relative binding affinity(ARB) (HLA B*5301): 0.10
Normalized average relative binding affinity(ARB) (H-2 D^d): 0.048
Normalized average relative binding affinity(ARB) (HLA B*5802): 0.058
Normalized average relative binding affinity(ARB) (HLA B*0801): 0.030
Normalized average relative binding affinity(ARB) (HLA B*5801): 0.65
Normalized average relative binding affinity(ARB) (HLA B*5101): 0.59
Normalized average relative binding affinity(ARB) (HLA B*1503): 0.29
Normalized average relative binding affinity(ARB) (HLA A*3001): 0.16
Normalized average relative binding affinity(ARB) (HLA B*5401): 0.15
Normalized average relative binding affinity(ARB) (H-2 K^k): 0.037
Normalized average relative binding affinity(ARB) (H-2 K^d): 0.045
Normalized average relative binding affinity(ARB) (HLA B*1501): 0.40
Normalized average relative binding affinity(ARB) (H-2 D^b): 0.33
Normalized average relative binding affinity(ARB) (HLA A*3201): 0.094
Normalized average relative binding affinity(ARB) (HLA A*6802): 0.55
Normalized average relative binding affinity(ARB) (HLA B*3501): 0.48

XXXXXXXGX [3064.0146]
Normalized average relative binding affinity(ARB) (HLA B*5301): 0.094
Normalized average relative binding affinity(ARB) (H-2 D^d): 0.62
Normalized average relative binding affinity(ARB) (HLA B*5802): 0.87
Normalized average relative binding affinity(ARB) (HLA B*0801): 0.099
Normalized average relative binding affinity(ARB) (HLA B*5801): 0.21
Normalized average relative binding affinity(ARB) (HLA B*5101): 0.20
Normalized average relative binding affinity(ARB) (HLA B*1503): 0.18
Normalized average relative binding affinity(ARB) (HLA A*3001): 0.18
Normalized average relative binding affinity(ARB) (HLA B*5401): 0.083
Normalized average relative binding affinity(ARB) (H-2 K^k): 0.32
Normalized average relative binding affinity(ARB) (H-2 K^d): 0.63
Normalized average relative binding affinity(ARB) (HLA B*1501): 0.15
Normalized average relative binding affinity(ARB) (H-2 D^b): 0.043
Normalized average relative binding affinity(ARB) (HLA A*3201): 0.54
Normalized average relative binding affinity(ARB) (HLA A*6802): 0.31
Normalized average relative binding affinity(ARB) (HLA B*3501): 0.098

XXXGXXXXX [3064.0066]
Normalized average relative binding affinity(ARB) (HLA B*5301): 0.18
Normalized average relative binding affinity(ARB) (H-2 D^d): 0.17
Normalized average relative binding affinity(ARB) (HLA B*5802): 0.15
Normalized average relative binding affinity(ARB) (HLA B*0801): 0.063
Normalized average relative binding affinity(ARB) (HLA B*5801): 0.21
Normalized average relative binding affinity(ARB) (HLA B*5101): 0.47
Normalized average relative binding affinity(ARB) (HLA B*1503): 0.19
Normalized average relative binding affinity(ARB) (HLA A*3001): 0.50
Normalized average relative binding affinity(ARB) (HLA B*5401): 0.062
Normalized average relative binding affinity(ARB) (H-2 K^k): 0.19
Normalized average relative binding affinity(ARB) (H-2 K^d): 0.14
Normalized average relative binding affinity(ARB) (HLA B*1501): 0.23
Normalized average relative binding affinity(ARB) (H-2 D^b): 0.088
Normalized average relative binding affinity(ARB) (HLA A*3201): 0.33
Normalized average relative binding affinity(ARB) (HLA A*6802): 0.26
Normalized average relative binding affinity(ARB) (HLA B*3501): 0.17

XXXXXTXXX [3064.0117]
Normalized average relative binding affinity(ARB) (HLA B*5301): 0.30
Normalized average relative binding affinity(ARB) (H-2 D^d): 1.0
Normalized average relative binding affinity(ARB) (HLA B*5802): 0.17
Normalized average relative binding affinity(ARB) (HLA B*0801): 0.068
Normalized average relative binding affinity(ARB) (HLA B*5801): 0.72
Normalized average relative binding affinity(ARB) (HLA B*5101): 0.32
Normalized average relative binding affinity(ARB) (HLA B*1503): 0.79
Normalized average relative binding affinity(ARB) (HLA A*3001): 0.27
Normalized average relative binding affinity(ARB) (HLA B*5401): 0.32
Normalized average relative binding affinity(ARB) (H-2 K^k): 0.70
Normalized average relative binding affinity(ARB) (H-2 K^d): 0.26
Normalized average relative binding affinity(ARB) (HLA B*1501): 0.55
Normalized average relative binding affinity(ARB) (H-2 D^b): 0.55
Normalized average relative binding affinity(ARB) (HLA A*3201): 0.77
Normalized average relative binding affinity(ARB) (HLA A*6802): 0.84
Normalized average relative binding affinity(ARB) (HLA B*3501): 0.16

XXXXQXXXX [3064.0094]
Normalized average relative binding affinity(ARB) (HLA B*5301): 0.12
Normalized average relative binding affinity(ARB) (H-2 D^d): 0.15
Normalized average relative binding affinity(ARB) (HLA B*5802): 0.063
Normalized average relative binding affinity(ARB) (HLA B*0801): 0.037
Normalized average relative binding affinity(ARB) (HLA B*5801): 0.19
Normalized average relative binding affinity(ARB) (HLA B*5101): 0.29
Normalized average relative binding affinity(ARB) (HLA B*1503): 0.20
Normalized average relative binding affinity(ARB) (HLA A*3001): 0.20
Normalized average relative binding affinity(ARB) (HLA B*5401): 0.40
Normalized average relative binding affinity(ARB) (H-2 K^k): 0.099
Normalized average relative binding affinity(ARB) (H-2 K^d): 0.15
Normalized average relative binding affinity(ARB) (HLA B*1501): 1.0
Normalized average relative binding affinity(ARB) (H-2 D^b): 0.023
Normalized average relative binding affinity(ARB) (HLA A*3201): 0.38
Normalized average relative binding affinity(ARB) (HLA A*6802): 0.077
Normalized average relative binding affinity(ARB) (HLA B*3501): 0.28

XXXXXCXXX [3064.0102]
Normalized average relative binding affinity(ARB) (HLA B*5301): 0.13
Normalized average relative binding affinity(ARB) (H-2 D^d): 0.43
Normalized average relative binding affinity(ARB) (HLA B*5802): 0.38
Normalized average relative binding affinity(ARB) (HLA B*0801): 0.039
Normalized average relative binding affinity(ARB) (HLA B*5801): 0.17
Normalized average relative binding affinity(ARB) (HLA B*5101): 0.26
Normalized average relative binding affinity(ARB) (HLA B*1503): 0.096
Normalized average relative binding affinity(ARB) (HLA A*3001): 0.13
Normalized average relative binding affinity(ARB) (HLA B*5401): 0.10
Normalized average relative binding affinity(ARB) (H-2 K^k): 0.40
Normalized average relative binding affinity(ARB) (H-2 K^d): 0.26
Normalized average relative binding affinity(ARB) (HLA B*1501): 0.40
Normalized average relative binding affinity(ARB) (H-2 D^b): 0.66
Normalized average relative binding affinity(ARB) (HLA A*3201): 0.19
Normalized average relative binding affinity(ARB) (HLA A*6802): 0.44
Normalized average relative binding affinity(ARB) (HLA B*3501): 0.15
